Test: Ki value determined against Sigma opioid receptor type 2 using [3H]DTG(5 nM) with 1uM dextrallorphan to mask sigma1 binding

| Structure (SMILES) | Ki |
| --- | --- |
| C=CCCCN1CC[C@]2(C)c3cc(O)ccc3CC1C2C (some centres not stated) [6,11-Dimethyl-3-pent-4-enyl-1,2,3,4,5,6-hexahydro-2,6-methano-benzo[d]azocin-8-ol] | 2.5 µM |
| C#CCCN1CC[C@]2(C)c3cc(O)ccc3CC1C2C (some centres not stated) [3-But-3-ynyl-6,11-dimethyl-1,2,3,4,5,6-hexahydro-2,6-methano-benzo[d]azocin-8-ol] | 15 µM |
| CC1C2Cc3ccc(O)cc3[C@@]1(C)CCN2CCCCC#N (some centres not stated) [5-(8-Hydroxy-6,11-dimethyl-1,2,5,6-tetrahydro-4H-2,6-methano-benzo[d]azocin-3-yl)-pentanenitrile] | 13 µM |
| CC1C2Cc3ccc(O)cc3[C@@]1(C)CCN2CCCCCCC#N (some centres not stated) [7-(8-Hydroxy-6,11-dimethyl-1,2,5,6-tetrahydro-4H-2,6-methano-benzo[d]azocin-3-yl)-heptanenitrile] | 1.9 µM |
| CC1C2Cc3ccc(O)cc3[C@@]1(C)CCN2CCC#N (some centres not stated) [3-(8-Hydroxy-6,11-dimethyl-1,2,5,6-tetrahydro-4H-2,6-methano-benzo[d]azocin-3-yl)-propionitrile] | > 100 µM |
| CC1C2Cc3ccc(O)cc3[C@@]1(C)CCN2CCCCCC#N (some centres not stated) [6-(8-Hydroxy-6,11-dimethyl-1,2,5,6-tetrahydro-4H-2,6-methano-benzo[d]azocin-3-yl)-hexanenitrile] | 5.7 µM |
| C=CCN1CC[C@]2(C)c3cc(O)ccc3CC1C2C (some centres not stated) [3-Allyl-6,11-dimethyl-1,2,3,4,5,6-hexahydro-2,6-methano-benzo[d]azocin-8-ol] | 27 µM |
| C=CCCN1CC[C@]2(C)c3cc(O)ccc3CC1C2C (some centres not stated) [3-But-3-enyl-6,11-dimethyl-1,2,3,4,5,6-hexahydro-2,6-methano-benzo[d]azocin-8-ol] | 7.6 µM |
| CC1C2Cc3ccc(O)cc3[C@@]1(C)CCN2CCCC#N (some centres not stated) [4-(8-Hydroxy-6,11-dimethyl-1,2,5,6-tetrahydro-4H-2,6-methano-benzo[d]azocin-3-yl)-butyronitrile] | 34 µM |
| CC1C2Cc3ccc(O)cc3[C@@]1(C)CCN2CC#N (some centres not stated) [(8-Hydroxy-6,11-dimethyl-1,2,5,6-tetrahydro-4H-2,6-methano-benzo[d]azocin-3-yl)-acetonitrile] | 93 µM |
| C#CCCCN1CC[C@]2(C)c3cc(O)ccc3CC1C2C (some centres not stated) [6,11-Dimethyl-3-pent-4-ynyl-1,2,3,4,5,6-hexahydro-2,6-methano-benzo[d]azocin-8-ol] | 3.5 µM |
| C=CCCCCN1CC[C@]2(C)c3cc(O)ccc3CC1C2C (some centres not stated) [3-Hex-5-enyl-6,11-dimethyl-1,2,3,4,5,6-hexahydro-2,6-methano-benzo[d]azocin-8-ol] | 0.76 µM |

— BindingDB's records for doi:10.1021/jm000317+ (Virginia Commonwealth University, 2001)
